Read-outs that look alike come from different tables or passages of the source. Non-standard residues stand in square brackets, D forms with d. Residues, ends and D or L forms follow the SMILES beside them. pGlu = O=C1CC[C@@H](C(=O)O)N1
What was measured:
[1] = system: Female albino Sprague-Dowely rats; test: Cataract due to hypergalactosemic diet (in vivo experimental cataract model, slit lamp evaluation); details: rats on 50% galactose diet, 20 days; PGC 10% in buffer, one drop twice a day into the conjunctive sac
Source text: Female albino Sprague-Dowely rats having an average weight of 70 g have been used. Said rats have been fed a diet consisting of 50% galactose and the remaining 50% standard rat food during a 20 days period. The animals have been divided in two groups: the first animal group has been administered PGC (10% in buffer) by instilling one drop twice a day into the conjuctive sac, both sides; the second group, consisting of control animals, has been administered buffer only.
The conditions of the various eye sections : conjunctiva, cornea, interior chamber, lens and vitreous humor have been evaluated at the slit lamp. The examination has been carried out before the beginning of the treatment and then on the 5th, 10th, 15th and 20th day.

Male albino Wistar rats = test: Cataract from tryptophan deficiency (in vivo experimental cataract model, slit lamp evaluation); details: rats on tryptophan-deficient diet, 30 days
Procedure: Said rats have been fed a synthetic diet devoid of tryptophan for a 30 days period and divided in three groups: the first animal group has been administered PGC subcutaneously at a dosage of 1 mg/kg in buffer solution, the second group has been administered a 10 mg/kg doses, whilst the animals of the third group have been injected only buffer solution.
The conditions of the various eye sections : conjunctiva, cornea, interior chamber, lens and vitreous humor have been evaluated at the slit lamp.
Especially the localisation and the degree of lens opaqueness have been scrutinized and documented by means of photographs.
It was possible to observe opaqueness predominantly at the level at the posterior capsule and there was also evidence of an initial sclerosis of the nucleus. No further alterations either at the level of the anterior segment or of the posterior segment have been observed.

male New-Zealand rabbits [2] = details: rabbit, in vivo
male New-Zealand rabbits [3] = test: Toxicity (systemic tolerability) after intraperitoneal injection; assay type: in vivo
Procedure: The systemic tolerability of PGC has been studied also after acute administration by means of intraperitoneal injection.
10 rabbits have received the substance (400 mg/kg) injected intraperitoneally.
24 hours after the administration of the product, the following examination have been carried out on urine and blood: • blood cell (red and white) count • determination of glycemia and acotemia; • evaluation of SGOT and SGPT transaminases

rat lenses = test: Experimental model of in vitro cataract (isolated lenses incubated in high-glucose culture broth); assay type: cell-based, rats; details: lenses treated with PGC 1M; 55.5 mM glucose
Procedure: Male albino Wistar rats having an average weight of 180 g have been used. After decapitation, both eye bulbs have been enucleated and the lenses have been removed from the back. The isolated lenses have been incubated at 37°C during 5 days in culture broth 199 containing 15% of foetal bovine serum (Laboratorio Gebco) and a 55.5 mM concentration of glucose. PGC has been added at a 1M concentration into the culture broth of only some lenses. The observations have been carried out at the 3rd and 5th day with the use of a stereo microscope and a Nikon camera with annular flash.
It can be observed that in the control lenses the opaqueness development begins after only 72 hours of incubation and is complete after 120 hours. In the lenses treated with PGC low levels of opaqueness can not be observed before 120 hours of treatment.

O=C1CC[C@@H](C(=O)N[C@@H](CS)C(=O)O)N1 [PGC, L-pyroglutamyl-L-cysteine] ([pGlu]-Cys-OH)
effect on the formation of lens opaqueness [1]: protective effect
percent of opaque lenses as a whole in the treated animals relative to the controls [1]: 60%
lens opaqueness (Male albino Wistar rats; PGC 1 mg/kg subcutaneously): perfectly transparent
lens opaqueness (Male albino Wistar rats; PGC 10 mg/kg subcutaneously): perfectly transparent
BODY WEIGHT INCREASE (KG) ON DAY 0 (male New-Zealand rabbits [2]): 1.60 ± 0.08 kg
BODY WEIGHT INCREASE (KG) ON DAY 20 (male New-Zealand rabbits [2]): 2.34 ± 0.12 kg
changes of the hematological or hematochemical constants or of the urine composition (male New-Zealand rabbits [2]): not shown any changes
growth modification relative to control animals (male New-Zealand rabbits [2]): No growth modification
changes of the hematological or hematochemical constants or of the urine composition (male New-Zealand rabbits [3]; PGC 400 mg/kg intraperitoneally, 24 hours after administration, urine and blood examination): not shown any changes
growth modification relative to control animals (male New-Zealand rabbits [3]; PGC intraperitoneally): No growth modification
BODY WEIGHT INCREASE (KG) ON DAY 0 (male New-Zealand rabbits [3]; PGC intraperitoneally (400 mg/kg), day 0 (baseline), average ± SD, n=10): 1.45 ± 0.05 kg
BODY WEIGHT INCREASE (KG) ON DAY 20 (male New-Zealand rabbits [3]; PGC intraperitoneally (400 mg/kg), day 20, average ± SD, n=10): 2.25 ± 0.08 kg
time before low levels of opaqueness can be observed (rat lenses): ≥ 120 h
